The results in this text go back to US20210122730A1, “GLUCOCORTICOID RECEPTOR MODULATORS” (ORIC Pharmaceuticals, Inc., priority 2017, published 2021).

The target in one data set is T1, GR (Homo sapiens, UniProt P04150).
T1 construct: expressed in transfected cells; host or cells: CHO-K1
T1 sequence (P04150 1-777): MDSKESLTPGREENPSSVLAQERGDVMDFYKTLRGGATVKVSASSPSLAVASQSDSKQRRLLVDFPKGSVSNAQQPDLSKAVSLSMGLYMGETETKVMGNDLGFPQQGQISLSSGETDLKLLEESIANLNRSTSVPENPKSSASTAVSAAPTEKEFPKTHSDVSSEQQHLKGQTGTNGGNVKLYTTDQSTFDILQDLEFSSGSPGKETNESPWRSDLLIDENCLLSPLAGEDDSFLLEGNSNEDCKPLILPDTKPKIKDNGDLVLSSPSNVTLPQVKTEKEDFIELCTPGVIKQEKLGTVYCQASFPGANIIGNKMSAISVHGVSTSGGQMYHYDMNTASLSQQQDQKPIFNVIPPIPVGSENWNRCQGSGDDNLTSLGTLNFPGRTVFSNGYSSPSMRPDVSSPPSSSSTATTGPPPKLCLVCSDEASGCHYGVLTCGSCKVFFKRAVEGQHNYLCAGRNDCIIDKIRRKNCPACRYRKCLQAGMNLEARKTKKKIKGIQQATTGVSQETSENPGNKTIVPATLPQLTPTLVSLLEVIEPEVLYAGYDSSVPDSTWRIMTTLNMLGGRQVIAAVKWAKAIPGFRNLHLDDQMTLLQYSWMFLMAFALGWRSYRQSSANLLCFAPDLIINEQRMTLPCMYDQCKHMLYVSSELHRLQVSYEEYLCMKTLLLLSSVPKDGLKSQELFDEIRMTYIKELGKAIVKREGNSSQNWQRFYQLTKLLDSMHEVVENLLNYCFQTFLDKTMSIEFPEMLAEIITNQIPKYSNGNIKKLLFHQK
The experiment in a line: In Vitro GR Luciferase Reporter Assay (antagonist mode, CHO-K1-GR-MMTV-Luc reporter cells). It counts as cell-based. To be noted: antagonist mode, 10 nM Dexamethasone. The method, boiled down:
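CHO-K1-GR-MMTV-Luc cells in phenol red-free DMEM with 10% CSS, stimulated with 10 nM dexamethasone (final) and treated with 8-point 1:5 compound dilutions for about 18-24 h at 37° C. Luciferase measured by OneGlo luminescence; IC50 derived for inhibition of GR activity.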
For orientation: A reporter such as luciferase makes a cellular process visible.

A further data set concerns the target T2, CYP2C8 (Homo sapiens, UniProt P10632).
T2 construct: Pooled human microsomes were obtained from Sekisui XenoTech, KS; tissue Sekisui XenoTech, KS; host or cells: pooled human liver microsomes
T2 sequence (P10632 1-490): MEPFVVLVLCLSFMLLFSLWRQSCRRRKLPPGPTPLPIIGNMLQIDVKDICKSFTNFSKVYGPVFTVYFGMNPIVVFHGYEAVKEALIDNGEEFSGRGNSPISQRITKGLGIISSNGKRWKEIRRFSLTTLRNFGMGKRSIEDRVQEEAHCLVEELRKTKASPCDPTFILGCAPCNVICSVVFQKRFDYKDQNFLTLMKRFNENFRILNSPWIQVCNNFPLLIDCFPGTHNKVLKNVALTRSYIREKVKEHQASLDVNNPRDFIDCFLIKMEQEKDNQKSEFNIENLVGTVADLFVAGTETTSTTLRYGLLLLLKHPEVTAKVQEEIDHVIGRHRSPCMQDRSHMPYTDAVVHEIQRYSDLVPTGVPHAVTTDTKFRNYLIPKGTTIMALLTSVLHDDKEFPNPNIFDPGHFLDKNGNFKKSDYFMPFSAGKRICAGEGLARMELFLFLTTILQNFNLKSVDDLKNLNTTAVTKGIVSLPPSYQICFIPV
Description: CYP Inhibition Assay (CYP2C8, human liver microsomes, paclitaxel substrate). To be noted: pH 7.4; pooled human liver microsomes 0.1 mg/mL, probe substrate paclitaxel. It counts as in vitro ADME. The method, boiled down:
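Pooled human liver microsomes (0.1 mg/mL) in 50 mM potassium phosphate pH 7.4 with compound, started with 1 mM NADPH, 5 min at 37° C, duplicate.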
A general note: Liver microsomes are a subcellular fraction often used to study metabolism.

As a reminder, the IC50 is the concentration that gives 50% inhibition. Higher therefore signals weaker potency in that assay. By inhibition is commonly meant the percentage by which the read-out fell short of the control. Higher therefore signals a strong effect.

In the case of `Cn1ccc(S(=O)(=O)N(C2CC(F)(F)C2)[C@H]2CCC3=Cc4c(cnn4-c4ccc(F)cc4)C[C@]3(C(=O)c3ncc(C(F)(F)F)s3)C2)n1` [Example 270, N-(3,3-difluorocyclobutyl)-N-((4aS,6S)-1-(4-fluorophenyl)-4a-(5-(trifluoromethyl)thiazole-2-carbonyl)-4,4a,5,6,7,8-hexahydro-1H-benzo[f]indazol-6-yl)-1-methyl-1H-pyrazole-3-sulfonamide], the 50% inhibitory concentration (IC50) against GR is at most 100 nM. At CYP2C8, this molecule returned an inhibition at 5 min of at most 25%.

Molecule `Cn1ccc(S(=O)(=O)N([C@H]2CCC3=Cc4c(cnn4-c4ccc(F)cc4)C[C@]3(C(=O)c3ncc(C(F)(F)F)s3)C2)[C@H]2C[C@@](C)(O)C2)n1` [Example 277, N-((4aS,6S)-1-(4-fluorophenyl)-4a-(5-(trifluoromethyl)thiazole-2-carbonyl)-4,4a,5,6,7,8-hexahydro-1H-benzo[f]indazol-6-yl)-N-((1s,3R)-3-hydroxy-3-methylcyclobutyl)-1-methyl-1H-pyrazole-3-sulfonamide] displayed a 50% inhibitory concentration (IC50) against GR of at most 100 nM. At CYP2C8, this molecule showed an inhibition at 5 min of at most 25%.

Consider `Cn1cnc(S(=O)(=O)N(C2CC2)[C@H]2CCC3=Cc4c(cnn4-c4ccc(F)cc4)C[C@]3(C(=O)c3ncc(C(F)(F)F)s3)C2)n1` [Example 305, N-cyclopropyl-N-((4aS,6S)-1-(4-fluorophenyl)-4a-(5-(trifluoromethyl)thiazole-2-carbonyl)-4,4a,5,6,7,8-hexahydro-1H-benzo[f]indazol-6-yl)-1-methyl-1H-1,2,4-triazole-3-sulfonamide], for which the IC50 against GR is at most 100 nM. Besides, the inhibition at 5 min against CYP2C8 is 25 to 50%.

As for `Cn1cnc(S(=O)(=O)N(C2CC2)[C@H]2CCC3=Cc4c(cnn4-c4ccc(F)cc4)C[C@]3(C(=O)c3cc(C(F)(F)F)ccn3)C2)n1` [Example 306, N-cyclopropyl-N-((4aS,6S)-1-(4-fluorophenyl)-4a-(4-(trifluoromethyl)picolinoyl)-4,4a,5,6,7,8-hexahydro-1H-benzo[f]indazol-6-yl)-1-methyl-1H-1,2,4-triazole-3-sulfonamide], at GR, the 50% inhibitory concentration (IC50) was at most 100 nM. At CYP2C8, this molecule showed an inhibition at 5 min of at most 25%.
